Results: US4386099A, “Imidazolylphenyl amidines, pharmaceutical compositions containing same and use thereof” (Istituto de Angeli S.p.A., priority 1980, dated 1983)
Read-outs that look alike come from different tables or passages of the source.

Legend:
histamine H2-receptors [1] = target: T1, histamine H2-receptors (Cavia porcellus, UniProt P47747); assay: In vitro inhibitory activity in histamine-induced tachycardia (positive chronotropic effect, isolated guinea pig atria); assay type: cell-based; conditions: reduction of histamine (10^-6 g/ml) H2-evoked response, pH 7.4, 32° C.
T1 construct: isolated guinea pig atria suspended in an organ bath; from tissue; host or cells: isolated guinea pig atria
T1 sequence (P47747 whole entry): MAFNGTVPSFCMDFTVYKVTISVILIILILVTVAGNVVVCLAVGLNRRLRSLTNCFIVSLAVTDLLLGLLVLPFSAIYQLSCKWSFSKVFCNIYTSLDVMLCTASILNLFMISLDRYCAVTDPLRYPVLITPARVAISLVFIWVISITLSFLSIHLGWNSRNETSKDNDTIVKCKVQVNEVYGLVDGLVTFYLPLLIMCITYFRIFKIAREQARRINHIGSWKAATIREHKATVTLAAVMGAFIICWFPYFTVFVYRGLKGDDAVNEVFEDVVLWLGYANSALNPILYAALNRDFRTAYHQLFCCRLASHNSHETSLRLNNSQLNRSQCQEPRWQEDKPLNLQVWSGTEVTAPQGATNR
Experimental: The positive chronotropic effect has been investigated in isolated guinea pig atria suspended in an organ bath (50 ml) containing oxygenated (O2 : 95%, CO2 : 5%) Krebs-Henseleit solution (pH 7.4) maintained at 32° C. The myocardial preparation, loaded at 1 gm of isometric tension, is allowed to stabilize for 60 minutes and myocardial contractions are recorded through an isometric lever connected to a strain-gauge coupler. The instantaneous rate is monitored with a cardiotachymeter and a heat-writing pen recorder. After a control run, responses (tachycardia) to histamine (10^-6 g/ml) are obtained three times at 30 minute intervals. The test compounds are added to the bath to the desired final concentration, and the atria are again injected with histamine. The chronotropic response obtained in the presence of the antagonist is then compared to the control response to histamine, and the percent reduction of the histamine H2 -evoked response is calculated. […] 3 Smooth Muscle, Ed Daniel E. E. Patron, M., Plenum Press. New York (1975), and Ash and Schild, Br. J. Pharmacol. Chemother. 27 427-439 (1966).

histamine H2-receptors [2] = target: T2, histamine H2-receptors (Rattus norvegicus, UniProt P25102); assay: In vivo anti-secretory activity in histamine-induced gastric secretion (stomach perfused rat); conditions: iv
T2 construct: from tissue; host or cells: stomach of the anaesthetised rat, in vivo
T2 sequence (P25102 whole entry, the tested form may be a part): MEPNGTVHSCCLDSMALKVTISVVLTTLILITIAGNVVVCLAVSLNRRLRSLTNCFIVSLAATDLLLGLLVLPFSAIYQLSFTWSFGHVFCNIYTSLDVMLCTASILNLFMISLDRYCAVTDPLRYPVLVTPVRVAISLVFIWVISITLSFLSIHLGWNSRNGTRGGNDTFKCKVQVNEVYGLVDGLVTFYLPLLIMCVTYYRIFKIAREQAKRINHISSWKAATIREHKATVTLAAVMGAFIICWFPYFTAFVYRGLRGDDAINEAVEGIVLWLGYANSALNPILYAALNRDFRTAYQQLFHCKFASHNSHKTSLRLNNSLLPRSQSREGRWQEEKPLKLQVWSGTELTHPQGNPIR
Experimental: The preparation of the animals in general anaesthesia (urethane, 1 gm/kg i.p.) and constant temperature, is achieved by inserting and typing in place polyethyl tubes (PE 50) in the esophagus and in the pyloric-antral region. After the stomach is washed to remove residual food, continuous perfusion of the stomach is started with saline, 0.5 ml/min (37° C.), primed by a Jobling peristaltic pump. After 30 minutes of perfusion adaptation, the stomach perfusate is collected in 30 minute samples, and the samples are titrated for acid content, expressed as μEq of 1 N NaOH. As acid output becomes constant, as a control, intravenous perfusion of histamine (1 mg/kg.hr) is started and maintained throughout the experimental period. […] The ED50 values are then calculated by standard procedure.

H2-receptor [3] = conditions: cited from earlier work; for Potency as H2-receptor antagonist: in vitro testing, vs cimetidine
[4] = in vivo; cited from earlier work
[5] = in vivo; cited from earlier work; remark: listed apart in the source
H2-receptor [6] = conditions: in man, vs burimamide; cited from earlier work
[7] = in vivo; cited from earlier work; remark: listed apart in the source
gastric acid secretion = conditions: in vivo testing, vs cimetidine; cited from earlier work
[8] = stomach perfused rat, histamine 1 mg/kg.hr i.v., expressed with regard to the compound as a base, read-out: ED50

| SMILES | EC50 (histamine H2-receptors [1]) [nM] | ED50 (histamine H2-receptors [2]; [8]) [mg/kg] | other results |
| --- | --- | --- | --- |
| CN/C(=N/CCSCc1nc[nH]c1C)NC#N [Cimetidine] |  |  | ED50 (histamine H2-receptors [2]; rat): 0.56 mg/kg; Potency as H2-antagonist (H2-receptor [3]; cimetidine vs metiamide): as potent as metiamide; Toxic side effects [4]: devoid of the toxic side effects of metiamide; Half-life [5]: relatively short |
| CCNC=Nc1ccc(-c2c[nH]cn2)cc1 [Compound A, N-Ethyl-N'-[4-(imidazol-4-yl)-phenyl]-formamidine] | 300 | 0.02 |  |
| CCC(C)NC=Nc1ccc(-c2c[nH]cn2)cc1 (centres unmarked) [Compound E, N-sec-Butyl-N'-[4-(imidazol-4-yl)-phenyl]-formamidine] | 150 | 0.0223 |  |
| C(=Nc1ccc(-c2c[nH]cn2)cc1)NC1CC1 [I, N-Cyclopropyl-N'-[4-(imidazol-4-yl)-phenyl]-formamidine] | 379 | 0.0366 |  |
| C=CC(C)NC=Nc1ccc(-c2c[nH]cn2)cc1 (stereo not drawn) [J, N-(α-Methylallyl)-N'-[4-(imidazol-4-yl)-phenyl]-formamidine] | 168 | 0.042 |  |
| CC1(C)CC1CNC=Nc1ccc(-c2c[nH]cn2)cc1 (centres unmarked) [L, N-(2,2-Dimethyl)-cyclopropylmethyl-N'-[4-(imidazol-4-yl)-phenyl]-formamidine] | 500 | 0.034 |  |
| C/N=C(\S)NCCSCc1[nH]cnc1C [Metiamide] |  |  | Potency and oral activity (H2-receptor [6]): more potent and orally active in man than burimamide; Toxic side effects [4]: toxic side effects (agranulocytosis) |
| CNC(=S)NCCCCc1cnc[nH]1 [burimamide] |  |  | Oral bioavailability [7]: seemed to lack sufficient oral bioavailability |
| CNC(=C[N+](=O)[O-])NCCSCc1ccc(CN(C)C)o1 [ranitidine] |  |  | Potency as inhibitor of gastric acid secretion (gastric acid secretion): more potent than cimetidine; Potency as H2-receptor antagonist (H2-receptor [3]): more potent than cimetidine |
| CNC(=NCCSCc1csc(N=C(N)N)n1)NC#N [tiotidine] |  |  | Potency as inhibitor of gastric acid secretion (gastric acid secretion): more potent than cimetidine; Potency as H2-receptor antagonist (H2-receptor [3]): more potent than cimetidine |

Now from value to molecule, other results behind:

| EC50 (histamine H2-receptors [1]) [nM] | ED50 (histamine H2-receptors [2]; [8]) [mg/kg] | SMILES | other results |
| --- | --- | --- | --- |
| 92 | 0.0129 | CC(C)NC=Nc1ccc(-c2c[nH]cn2)cc1 [B, N-Isopropyl-N'-[4-(imidazol-4-yl)-phenyl]-formamidine] |  |
| 93 | 0.024 | C=CCNC=Nc1ccc(-c2c[nH]cn2)cc1 [C, N-Allyl-N'-[4-(imidazol-4-yl)-phenyl]-formamidine] |  |
| 44 | 0.0111 | CCCNC=Nc1ccc(-c2c[nH]cn2)cc1 [D, N-n-Propyl-N'-[4-(imidazol-4-yl)-phenyl]-formamidine] |  |
| 65 | 0.0259 | CC(C)CNC=Nc1ccc(-c2c[nH]cn2)cc1 [F, N-Isobutyl-N'-[4-(imidazol-4-yl)-phenyl]-formamidine] |  |
| 74 | 0.0559 | CC(C)=CCNC=Nc1ccc(-c2c[nH]cn2)cc1 [G] |  |
| 48 | 0.0235 | C(=Nc1ccc(-c2c[nH]cn2)cc1)NCC1CC1 [H, N-Cyclopropylmethyl-N'-[4-(imidazol-4-yl)-phenyl]-formamidine] |  |
| 121 | 0.03 | CC(C)(C)CNC=Nc1ccc(-c2c[nH]cn2)cc1 [K, N-Neopentyl-N'-[4-(imidazol-4-yl)-phenyl]-formamidine] |  |
